From US9561231B2 (AbbVie Inc., priority 2012, dated 2017)
Read-outs that look alike come from different tables or passages of the source. Marks after values point to notes of the source that are not given here.

Assays:
[1] = biological target: T1, second (BD2: amino acids E352-E168) bromodomain of BRD4 (Homo sapiens, UniProt O60885); experiment: TR-FRET bromodomain binding assay, BRD4 BD2; details: Ki calculated from IC50, probe Kd and probe concentration, read-out: TR-FRET Binding Ki: BRD4 (BDII_E352-M457)
T1 construct: protocol
How it was run: (§1)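 Displacement of Alexa647-labeled BET-inhibitor probe from His-tagged bromodomain, TR-FRET read-out; buffer 20 mM Na phosphate pH 6.0, 50 mM NaCl, 0.01% Triton X-100. IC50 by 4PL fit; Ki calculated from IC50, probe Kd and probe concentration.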

[2] = tested on: breast cancer cell line MX-1; experiment: MX-1 cell line proliferation assay (3-day); type: cell-based; details: Homo sapiens, MX1, MX-1 cells, Cell Titer Glo, read-out: Cellular proliferation: EC50
How it was run: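 MX-1 cells in RPMI/10% FBS, plated 5000/well overnight, then exposed to compound at final 3 to 0.0001 μM (3-fold series) for 3 days at 37° C. Cell Titer Glo luminescence normalized to DMSO-treated cells; EC50 from sigmoidal curve fit.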

[3] = tested on: LPS induced IL-6 production; experiment: LPS (lipopolysaccharide) induced IL-6 production mouse assay; details: 1 h before LPS 2.5 mg/kg i.p., serum IL-6 2 h after LPS, p<0.05
[4] = biological target: T2, first (BD1: amino acids K57-E168) bromodomain of BRD4 (Homo sapiens, UniProt O60885); experiment: TR-FRET bromodomain binding assay, BRD4 BD1; details: Ki calculated from IC50, probe Kd and probe concentration, read-out: TR-FRET Binding Ki: BRD4 (BDI_K57-E168)
T2 construct: His-tagged first (BD1: amino acids K57-E168)
How it was run: as §1

[5] = tested on: MX-1 human breast cancer xenograft; experiment: Xenograft tumor growth inhibition assay: MX-1; details: for % TGD (tumor growth delay): QDx21, endpoint 1000 mm^3; for % TGI (tumor growth inhibition): QDx21, tumor volumes study day 27
[6] = TR-FRET assay protocol (A-G, compound concentration range)
[7] = TR-FRET assay protocol (D, E or G) per compound

Row | Structure (SMILES) | Ki [1, 6] [nM] | EC50 ([2]; 72 h incubation) [nM] | Ki [4, 6] [nM] | Inhibition of LPS induced IL-6 production, % inhibition ([3]; 3 mg/kg oral) | also measured
1 | Cn1cc(-c2cc(NS(C)(=O)=O)ccc2Oc2ccccc2Cl)ccc1=O [Example 235, N-[4-(2-chlorophenoxy)-3-(1-methyl-6-oxo-1,6-dihydropyridin-3-yl)phenyl]methanesulfonamide] | 17 | 238 | 47.6 |  | Inhibition of LPS induced IL-6 production, % inhibition ([3]; 30 mg/kg oral): 58.7 @ 30 mg/kg %
2 | CCS(=O)(=O)Nc1ccc(Oc2ccc(F)cc2F)c(-c2ccc(=O)n(C)c2)c1 [Example 241, N-[4-(2,4-difluorophenoxy)-3-(1-methyl-6-oxo-1,6-dihydropyridin-3-yl)phenyl]ethanesulfonamide] | 27.1 | 181 | 34.6 | 73.9 @ 3 mg/kg % | 
3 | Cc1cc(Oc2ccccc2)c(-c2ccc(=O)n(C)c2)cc1NS(C)(=O)=O [Example 257, N-[2-methyl-5-(1-methyl-6-oxo-1,6-dihydropyridin-3-yl)-4-phenoxyphenyl]methanesulfonamide] | 31.6 | 173 | 18.1 |  | Inhibition of LPS induced IL-6 production, % inhibition ([3]; 30 mg/kg oral): 49.7 @ 30 mg/kg %
4 | CCOc1cc(=O)n(C)cc1-c1cc(NS(=O)(=O)CC)ccc1Oc1ccc(F)cc1F [Example 285, N-[4-(2,4-difluorophenoxy)-3-(4-ethoxy-1-methyl-6-oxo-1,6-dihydropyridin-3-yl)phenyl]ethanesulfonamide] |  |  |  | 84.0 @ 3 mg/kg % | % TGD (tumor growth delay) ([5]; 3 mg/kg/day PO): 140^d** %; % TGI (tumor growth inhibition) ([5]; 3 mg/kg/day PO): 84^d*** %
5 | CCCOc1cc(=O)n(C)cc1-c1cc(NS(=O)(=O)CC)ccc1Oc1ccc(F)cc1F [Example 292, N-[4-(2,4-difluorophenoxy)-3-(1-methyl-6-oxo-4-propoxy-1,6-dihydropyridin-3-yl)phenyl]ethanesulfonamide] | 1.73 | 45 | 4.97 | 58.0 @ 3 mg/kg % | 
6 | CCS(=O)(=O)Nc1ccc(Oc2ccc(F)cc2F)c(-c2cn(C)c(=O)cc2OCC(F)(F)F)c1 [Example 293, N-{4-(2,4-difluorophenoxy)-3-[1-methyl-6-oxo-4-(2,2,2-trifluoroethoxy)-1,6-dihydropyridin-3-yl]phenyl}ethanesulfonamide] | 5.99 | 115 | 37.1 | 71.0 @ 3 mg/kg % | % TGD (tumor growth delay) ([5]; 1 mg/kg/day PO): 11%; % TGI (tumor growth inhibition) ([5]; 1 mg/kg/day PO): 6%; % TGD (tumor growth delay) ([5]; 3 mg/kg/day PO): 42%; % TGI (tumor growth inhibition) ([5]; 3 mg/kg/day PO): 56* %
7 | CCS(=O)(=O)Nc1ccc(Oc2ccc(F)cc2F)c(-c2cn(C)c(=O)cc2OCC2(C)CC2(F)F)c1 (centres unmarked) [Example 335, N-[3-{4-[(2,2-difluoro-1-methylcyclopropyl)methoxy]-1-methyl-6-oxo-1,6-dihydropyridin-3-yl}-4-(2,4-difluorophenoxy)phenyl]ethanesulfonamide] | 15.1 | 239 | 95.3 | 50.9 @ 3 mg/kg % | 
8 | CCS(=O)(=O)Nc1ccc(Oc2ccc(F)cc2F)c(-c2cn(C)c(=O)cc2-n2cccn2)c1 [Example 346, N-{4-(2,4-difluorophenoxy)-3-[1-methyl-6-oxo-4-(1H-pyrazol-1-yl)-1,6-dihydropyridin-3-yl]phenyl}ethanesulfonamide] | 13 | 264 | 41.5 | 48.6 @ 3 mg/kg % | 
9 | CCOc1cc(=O)n(C)cc1-c1cc(S(=O)(=O)CC)ccc1Oc1ccc(F)cc1F [Example 375, 5-[2-(2,4-difluorophenoxy)-5-(ethylsulfonyl)phenyl]-4-ethoxy-1-methylpyridin-2(1H)-one] |  |  |  | 84.4 @ 3 mg/kg % | Ki [1, 7]: 3.22 nM; EC50 ([2]; 72 hours with compound): 40.2 nM; Ki [4, 7]: 12.9 nM
10 | CCOc1cc(=O)n(C)cc1-c1cc(NS(=O)(=O)CC)ccc1Oc1ccc(OC(F)(F)F)cc1 [Example 387, N-{3-(4-ethoxy-1-methyl-6-oxo-1,6-dihydropyridin-3-yl)-4-[4-(trifluoromethoxy)phenoxy]phenyl}ethanesulfonamide] |  |  |  | 54.3 @ 3 mg/kg % | Ki [1, 7]: 7.87 nM; EC50 ([2]; 72 hours with compound): 61.8 nM; Ki [4, 7]: 69.1 nM
11 | CCOc1cc(=O)n(C)cc1-c1cc(NS(=O)(=O)CC)ccc1Oc1ccc(Cl)cc1 [Example 400, N-[4-(4-chlorophenoxy)-3-(4-ethoxy-1-methyl-6-oxo-1,6-dihydropyridin-3-yl)phenyl]ethanesulfonamide] |  |  |  | 66.4 @ 3 mg/kg % | Ki [1, 7]: 1.81 nM; EC50 ([2]; 72 hours with compound): 18.1 nM; Ki [4, 7]: 7.21 nM

Now from value to compound, other results behind:

Row | Ki [1, 6] [nM] | EC50 ([2]; 72 h incubation) [nM] | Ki [4, 6] [nM] | Structure (SMILES) | Inhibition of LPS induced IL-6 production, % inhibition ([3]; 3 mg/kg oral) | also measured
12 | 7.61 | 52.6 | 7.8 | CCOc1cc(=O)n(C)cc1-c1cc(NS(=O)(=O)CC)ccc1Oc1ccc(C#N)cc1 [Example 358, N-[4-(4-cyanophenoxy)-3-(4-ethoxy-1-methyl-6-oxo-1,6-dihydropyridin-3-yl)phenyl]ethanesulfonamide] | 60.5 @ 3 mg/kg % | 
13 | 1.53 | 29.6 | 4.94 | CCNc1cc(=O)n(C)cc1-c1cc(NS(=O)(=O)CC)ccc1Oc1ccc(F)cc1F [Example 363, N-{4-(2,4-difluorophenoxy)-3-[4-(ethylamino)-1-methyl-6-oxo-1,6-dihydropyridin-3-yl]phenyl}ethanesulfonamide] | 42.7 @ 3 mg/kg % | 
14 | 0.528 | 18.9 | 2.11 | CCS(=O)(=O)Nc1ccc(Oc2ccc(F)cc2F)c(-c2cn(C)c(=O)cc2OC2CCC2)c1 [Example 367, N-{3-[4-(cyclobutyloxy)-1-methyl-6-oxo-1,6-dihydropyridin-3-yl]-4-(2,4-difluorophenoxy)phenyl}ethanesulfonamide] | 80.0 @ 3 mg/kg % | 
15 | 28.6 | 96.2 | 19.6 | CCOc1cc(=O)n(C)cc1-c1cc(S(=O)(=O)CC)ccc1OCC1CC1(F)F (centres unmarked) [Example 368, 5-{2-[(2,2-difluorocyclopropyl)methoxy]-5-(ethylsulfonyl)phenyl}-4-ethoxy-1-methylpyridin-2(1H)-one] | 72.4 @ 3 mg/kg % | 
16 | 2.42 | 28.1 | 5.29 | CCOc1cc(=O)n(C)cc1-c1cc(S(=O)(=O)C(C)C)ccc1Oc1ccc(F)cc1F [Example 369, 5-[2-(2,4-difluorophenoxy)-5-(propan-2-ylsulfonyl)phenyl]-4-ethoxy-1-methylpyridin-2(1H)-one] | 38.0 @ 3 mg/kg % | 
17 | 2.29 | 40.9 | 8.73 | CCOc1cc(=O)n(C)cc1-c1cc(S(=O)(=O)C2CC2)ccc1Oc1ccc(F)cc1F [Example 371, 5-[5-(cyclopropylsulfonyl)-2-(2,4-difluorophenoxy)phenyl]-4-ethoxy-1-methylpyridin-2(1H)-one] | 57.6 @ 3 mg/kg % | 
